Entries after “also recorded” stand apart in the source; their conditions may differ.
Experiments:
A549 = assay: Combination with genotoxic agents, cell viability (Mixtures Blend); format: cell-based; set-up: key to Synergy or Antagonism, Plus Radiation (2 Gy): Plus = enhanced effect of radiation; *: Viability reduction driven predominantly by Compound (1) plus radiation
Method: The cell-based experiments and assays were performed with either molecule but not always with both. Compounds (1) and (2) were generally very similar in those assays and experiments. Analysis of the combination experiments was performed using two methods: the Bliss Additivity model and the Mixtures Blend method to determine the degree of synergy, additivity, or antagonism. In the Bliss method, a matrix of Bliss scores was generated for each cell line and treatment, and a sum of the Bliss values over the range of combination concentrations tested was calculated. […] Larger average Bliss values indicate greater confidence in reporting synergy, and smaller scores indicate greater confidence in reporting antagonism. In the Mixtures Blend method combinants were added in a range of optimal ratios using design of experiment (DOE) software (DX-8 from STAT-EASE); the cells were irradiated with 2 Gy as required. Synergy was determined using statistical analysis of the data (ANOVA) to indicate linear (additivity) or statistically significant (p<0.1) non-linear (antagonism or synergy) mixes of the combinants. The following SOC agents were tested in double combinations with Compound (1): etoposide (a topoisomerase inhibitor that induces DSBs), cisplatin (DNA cross-linker), carboplatin (DNA cross-linker), fluorouracil (5-FU, antimetabolite that inhibits thymidylate synthase), paclitaxel (mitotic inhibitor that binds to tubulin), cetuximab (EGFR monoclonal antibody), and radiation. […] These findings were confirmed using the Bliss Additivity model (Table 21). […] While there is not total agreement in the various lines tested, (as detailed in the other sections) the majority agree and the conclusions arrived at are common to each. […] The cancer cell lines in Table 19 indicate: ESO26-gastroesophageal junction cancer, OE19-gastroesophageal junction cancer, […]549-lung cancer, colo205-colon cancer, H460-lung cancer, H2009-lung cancer, FaDu-pharynx cancer, Miapaca2-pancreatic cancer, HFL1-human fetal lung fibroblast.

[1] = tested on: OD26749 primary NSCLC xenograft; assay: OD26749 primary NSCLC xenograft efficacy with whole body IR; format: in vivo, nude mice; conditions: for % T/C (Day 29): 2 Gy IR ([…]) q7dx2
HFL1 = assay: Combination with etoposide, viability (Bliss analysis); format: cell-based, human; conditions: Compound (2) with etoposide; n = 3
Method: (§1) The cell-based experiments and assays were performed with either molecule but not always with both. Compounds (1) and (2) were generally very similar in those assays and experiments. Analysis of the combination experiments was performed using two methods: the Bliss Additivity model and the Mixtures Blend method to determine the degree of synergy, additivity, or antagonism. In the Bliss method, a matrix of Bliss scores was generated for each cell line and treatment, and a sum of the Bliss values over the range of combination concentrations tested was calculated. […] Larger average Bliss values indicate greater confidence in reporting synergy, and smaller scores indicate greater confidence in reporting antagonism. In the Mixtures Blend method combinants were added in a range of optimal ratios using design of experiment (DOE) software (DX-8 from STAT-EASE); the cells were irradiated with 2 Gy as required. Synergy was determined using statistical analysis of the data (ANOVA) to indicate linear (additivity) or statistically significant (p<0.1) non-linear (antagonism or synergy) mixes of the combinants.

[2] = tested on: ESO26 (GEJ) cancer cell line; assay: Combination with genotoxic agents, viability (Mixtures analysis); format: cell-based; conditions: single agent IC50 on which the mixtures were based
Method: as §1

[3] = tested on: DU4475 breast cancer line; assay: Doxorubicin or epirubicin combination in DU4475 cells; format: cell-based; conditions: Doxorubicin or epirubicin in combination with Compound (2)
Method: The cell-based experiments and assays were performed with either molecule but not always with both. […] Analysis of the combination experiments was performed using two methods: the Bliss Additivity model and the Mixtures Blend method to determine the degree of synergy, additivity, or antagonism. In the Bliss method, a matrix of Bliss scores was generated for each cell line and treatment, and a sum of the Bliss values over the range of combination concentrations tested was calculated. […] Larger average Bliss values indicate greater confidence in reporting synergy, and smaller scores indicate greater confidence in reporting antagonism. In the Mixtures Blend method combinants were added in a range of optimal ratios using design of experiment (DOE) software (DX-8 from STAT-EASE); the cells were irradiated with 2 Gy as required. Synergy was determined using statistical analysis of the data (ANOVA) to indicate linear (additivity) or statistically significant (p<0.1) non-linear (antagonism or synergy) mixes of the combinants.

Structure (SMILES) | Synergy or Antagonism, No Radiation (A549; no agent ticked) | Synergy or Antagonism, Plus Radiation (2 Gy) (A549; no agent ticked) | Synergy or Antagonism, No Radiation (A549; with Cetuximab) | Synergy or Antagonism, Plus Radiation (2 Gy) (A549; with Cetuximab) | Synergy or Antagonism, No Radiation (A549; with Cisplatin) | Synergy or Antagonism, No Radiation (A549; with Cisplatin and Etoposide) | Synergy or Antagonism, Plus Radiation (2 Gy) (A549; with Cisplatin and Etoposide) | Synergy or Antagonism, No Radiation (A549; with Cisplatin and Paclitaxel) | Synergy or Antagonism, Plus Radiation (2 Gy) (A549; with Cisplatin and Paclitaxel) | Synergy or Antagonism, No Radiation (A549; with Etoposide) | Synergy or Antagonism, No Radiation (A549; with Paclitaxel) | % T/C (Day 29) ([1]; PO 25 mg/kg bid (0, 4 h)) | % T/C (Day 20) ([1]; PO 100 mg/kg tid (0, 3, 7 h) qdx1, 2 Gy qdx1 (3.25 h) whole body IR, 100 mg/kg) | % T/C (Day 20) ([1]; PO 100 mg/kg tid (0, 3, 7 h) qdx1, no IR) | % T/C (Day 29) ([1]; PO 200 mg/kg qd) | Average Bliss score (HFL1) | IC50 [2] | Bliss analysis, combination effect [3]
CNC(=O)c1ccnc2c([C@H](C)CNc3cc(-c4cnc(C)nc4)ncn3)cccc12 [Compound (1), (S)-N-methyl-8-(1-((2′-methyl-[4,5′-bipyrimidin]-6-yl)amino)propan-2-yl)quinoline-4-carboxamide] | Synergy | Plus | Additivity | Additivity, Plus | Additivity | Strong Synergy | Strong Synergy, Plus | additive; also recorded: Additivity | Synergy, Plus | Strong Synergy | Antagonism | 25.6% | 26% | 101% | 6.5% | – | – | –
[2H]c1nc(C)nc([2H])c1-c1cc(NC[C@@H](C)c2cccc3c(C(=O)NC)ccnc23)ncn1 [Compound (2), (S)-N-methyl-8-(1-((2′-methyl-4′,6′-dideutero-[4,5′-bipyrimidin]-6-yl)amino)propan-2-yl)quinoline-4-carboxamide] | – | – | – | – | – | – | – | – | – | – | – | – | – | – | – | 8.7 ± 5.6 (n = 3) | 20 µM | strong synergy (greater than 10 indicates strong synergy)

Reference: patent publication US10039761B2, “Co-crystals and pharmaceutical compositions comprising the same” (Vertex Pharmaceuticals Incorporated, priority 2013, dated 2018)
